Source: patent publication US4309559A, “Sulphonamides useful as pesticides” (FBC Limited, priority 1977, dated 1982)

Legend:
Type in all cases: in vivo
Tomato [1] = assay: Soil incorporation (I), tomato; conditions: 21 days, 0=no effect, 100=complete suppression
Description: (§1) Each of the compounds listed below was formulated as: […]
(§2) (I) an attaclay/sand dust and incorporated in John Innes I potting compost at a rate equivalent to 6.5 and 3.25 parts per million weight/volume of active ingredient to soil and placed in anodised aluminium pans, 19 cm long×9.5 cm wide×5.0 cm high. This is approximately equivalent to a surface application of 2.8 and 1.4 kg active ingredient per hectare cultivated to a depth of 5 cm. Seeds of the species listed below were sown in the treated soil, one species per pan, watered and placed in a controlled environment room (22° C.; 65-85% relative humidity and 14 hours artificial illumination at 17,000 lux) for 21 days.
(§3) The plants were then visually assessed for any growth regulatory or herbicidal effects. All differences from an untreated control were scored on a scale from 0-100, where 0 signifies no effect and 100 signifies complete suppression.
(§4) The results are shown in the following table where I stands for soil incorporation and II for surface spray.

Wheat [2] = assay: Surface spray (II), wheat; conditions: 21 days, 0=no effect, 100=complete suppression
Description: as §1
(§5) (II) An aqueous suspension together with 1000 ppm of the wetting agent Lissapol NX. The surfaces of an additional set of pans with seeds already sown were then sprayed with 2.8 or 1.4 kg/ha in 450 liters/hectare, and the pans kept in the controlled environment room for 21 days.
as §3, §4

Barnyard Grass [3] = assay: Surface spray (II), barnyard grass; conditions: 21 days, 0=no effect, 100=complete suppression
Description: as §1, §5, §3, §4

[4] = system: Wheat (Triticum aestivum); assay: Post-emergence foliar spray of monocotyledons, wheat; conditions: foliar spray 2.8 kg/ha, 14 days, 0=no effect, 100=complete kill
Procedure: (§6) Seeds of the monocotyledon species listed below were sown in anodised aluminium pans, 19 cm long×9.5 cm wide×5.0 cm deep, containing John Innes I potting compost. They were then watered and placed in a controlled environment room (22° C.; 65-85% relative humidity; 14 hours per day artificial illumination at 17,000 lux). 14 days after sowing, the seedlings were given a foliar spray of the compound of Example 44, formulated as an aqueous suspension together with 2000 ppm of the wetting agent Lissapol NX. The dosage rate was adjusted to be 2.8 kg active ingredient in 450 liters per hectare. After a further 14 days in the controlled environment room, the plants were visually assessed for any growth regulatory or herbicidal effect. All differences from an untreated control were scored on a scale from 0-100 where 0 signifies no effect and 100 signifies complete kill.
(§7) The compounds listed below were tested according to the procedure of Example 66 but including rice (Oryza sativa) as an additional test species.

Cotton [5] = assay: Soil incorporation (I), cotton; conditions: 21 days, 0=no effect, 100=complete suppression
Description: as §1, §2, §3, §4

rice (Oryza sativa) = assay: Post-emergence foliar spray of monocotyledons, rice; conditions: foliar spray 2.8 kg/ha, 14 days, 0=no effect, 100=complete kill
Procedure: as §6, §7

Tomato [6] = assay: Surface spray (II), tomato; conditions: 21 days, 0=no effect, 100=complete suppression
Description: as §1, §5, §3, §4

Carrot [7] = assay: Surface spray (II), carrot; conditions: 21 days, 0=no effect, 100=complete suppression
Description: as §1, §5, §3, §4

Carrot [8] = assay: Soil incorporation (I), carrot; conditions: 21 days, 0=no effect, 100=complete suppression
Description: as §1, §2, §3, §4

Rice [9] = assay: Surface spray (II), rice; conditions: 21 days, 0=no effect, 100=complete suppression
Description: as §1, §5, §3, §4

Rice [10] = assay: Soil incorporation (I), rice; conditions: 21 days, 0=no effect, 100=complete suppression
Description: as §1, §2, §3, §4

Barley [11] = assay: Surface spray (II), barley; conditions: 21 days, 0=no effect, 100=complete suppression
Description: as §1, §5, §3, §4

Barley [12] = assay: Soil incorporation (I), barley; conditions: 21 days, 0=no effect, 100=complete suppression
Description: as §1, §2, §3, §4

Barley (Hordeum vulgare) = assay: Post-emergence foliar spray of monocotyledons, barley; conditions: foliar spray 2.8 kg/ha, 14 days, 0=no effect, 100=complete kill
Procedure: as §6, §7

[13] = system: Barnyardgrass (Echinochloa crus-galli); assay: Post-emergence foliar spray of monocotyledons, barnyardgrass; conditions: foliar spray 2.8 kg/ha, 14 days, 0=no effect, 100=complete kill
Procedure: as §6, §7

Barnyard Grass [14] = assay: Soil incorporation (I), barnyard grass; conditions: 21 days, 0=no effect, 100=complete suppression
Description: as §1, §2, §3, §4

Cotton [15] = assay: Surface spray (II), cotton; conditions: 21 days, 0=no effect, 100=complete suppression
Description: as §1, §5, §3, §4

Wheat [16] = assay: Soil incorporation (I), wheat; conditions: 21 days, 0=no effect, 100=complete suppression
Description: as §1, §2, §3, §4

Row | Compound | growth regulatory or herbicidal effect score (Tomato [1]; I soil incorporation 3.25 ppm) | growth regulatory or herbicidal effect score (Tomato [1]; I soil incorporation 6.5 ppm) | growth regulatory or herbicidal effect score (Wheat [2]; row 3.25 ppm (1.4 kg/ha)) | growth regulatory or herbicidal effect score (Wheat [2]; row 6.5 ppm (2.8 kg/ha)) | growth regulatory or herbicidal effect score (Barnyard Grass [3]; row 3.25 ppm (1.4 kg/ha)) | growth regulatory or herbicidal effect score (Barnyard Grass [3]; row 6.5 ppm (2.8 kg/ha)) | growth regulatory or herbicidal effect score [4] | growth regulatory or herbicidal effect score (Cotton [5]; I soil incorporation 3.25 ppm) | growth regulatory or herbicidal effect score (Cotton [5]; I soil incorporation 6.5 ppm) | growth regulatory or herbicidal effect score (rice (Oryza sativa)) | growth regulatory or herbicidal effect score (Tomato [6]; row 3.25 ppm (1.4 kg/ha)) | growth regulatory or herbicidal effect score (Tomato [6]; row 6.5 ppm (2.8 kg/ha)) | growth regulatory or herbicidal effect score (Carrot [7]; row 3.25 ppm (1.4 kg/ha)) | growth regulatory or herbicidal effect score (Carrot [7]; row 6.5 ppm (2.8 kg/ha)) | growth regulatory or herbicidal effect score (Carrot [8]; I soil incorporation 3.25 ppm) | growth regulatory or herbicidal effect score (Carrot [8]; I soil incorporation 6.5 ppm) | growth regulatory or herbicidal effect score (Rice [9]; row 3.25 ppm (1.4 kg/ha)) | growth regulatory or herbicidal effect score (Rice [9]; row 6.5 ppm (2.8 kg/ha)) | growth regulatory or herbicidal effect score (Rice [10]; I soil incorporation 3.25 ppm) | growth regulatory or herbicidal effect score (Rice [10]; I soil incorporation 6.5 ppm) | other results
1 | CS(=O)(=O)N(CC(N)=S)c1ccc(Cl)c(Cl)c1 [Example 85, N-(thiocarbamoylmethyl)-3,4-dichloromethanesulphonanilide] | 0 | 0 | 0 | 0 | 90 | 100 | 0 | 0 | 0 | 0 | 0 | 0 | 0 | 0 | 0 | 0 | 0 | 0 | 0 | 0 | growth regulatory or herbicidal effect score (Barley [11]; row 3.25 ppm (1.4 kg/ha)): 0; growth regulatory or herbicidal effect score (Barley [11]; row 6.5 ppm (2.8 kg/ha)): 0; growth regulatory or herbicidal effect score (Barley [12]; I soil incorporation 3.25 ppm): 0; growth regulatory or herbicidal effect score (Barley [12]; I soil incorporation 6.5 ppm): 0; growth regulatory or herbicidal effect score (Barley (Hordeum vulgare)): 0; growth regulatory or herbicidal effect score [13]: 90; growth regulatory or herbicidal effect score (Barnyard Grass [14]; I soil incorporation 3.25 ppm): 90; growth regulatory or herbicidal effect score (Barnyard Grass [14]; I soil incorporation 6.5 ppm): 90; growth regulatory or herbicidal effect score (Cotton [15]; row 3.25 ppm (1.4 kg/ha)): 0; growth regulatory or herbicidal effect score (Cotton [15]; row 6.5 ppm (2.8 kg/ha)): 0; growth regulatory or herbicidal effect score (Wheat [16]; I soil incorporation 3.25 ppm): 0; growth regulatory or herbicidal effect score (Wheat [16]; I soil incorporation 6.5 ppm): 0
2 | Cc1ccc(N(CC#N)S(C)(=O)=O)cc1Cl [Example 131] | 0 | 0 | 0 | 0 | 60 | 80 | 5 | 0 | 0 | 0 | 0 | 0 | 0 | 0 | 0 | 0 | 0 | 0 | 0 | 0 | growth regulatory or herbicidal effect score (Barley [11]; row 3.25 ppm (1.4 kg/ha)): 0; growth regulatory or herbicidal effect score (Barley [11]; row 6.5 ppm (2.8 kg/ha)): 0; growth regulatory or herbicidal effect score (Barley [12]; I soil incorporation 3.25 ppm): 0; growth regulatory or herbicidal effect score (Barley [12]; I soil incorporation 6.5 ppm): 0; growth regulatory or herbicidal effect score (Barley (Hordeum vulgare)): 10; growth regulatory or herbicidal effect score [13]: 90; growth regulatory or herbicidal effect score (Barnyard Grass [14]; I soil incorporation 3.25 ppm): 50; growth regulatory or herbicidal effect score (Barnyard Grass [14]; I soil incorporation 6.5 ppm): 70; growth regulatory or herbicidal effect score (Cotton [15]; row 3.25 ppm (1.4 kg/ha)): 0; growth regulatory or herbicidal effect score (Cotton [15]; row 6.5 ppm (2.8 kg/ha)): 0; growth regulatory or herbicidal effect score (Wheat [16]; I soil incorporation 3.25 ppm): 0; growth regulatory or herbicidal effect score (Wheat [16]; I soil incorporation 6.5 ppm): 0
